Target: recombinant SARS-CoV-2 M^pro (Severe acute respiratory syndrome coronavirus 2 (2019-nCoV) (SARS-CoV-2), UniProt P0DTD1)
Assay: Inhibition of SARS-CoV-2 M^pro enzyme activity (fluorescent substrate assay)
Type: biochemical
Conditions: IC50, inhibition of SARS-CoV-2 M^pro enzyme activity; values in nM

Work on `C[C@@H](NC(=O)C(C)(C)Oc1ccc([Si](C)(C)C)cc1Cl)C(=O)N[C@H](Cc1ccccc1)C(=O)C(=O)NCc1ccccn1` [Compound 81] yielded an IC50 of 27.9 ± 5.5 nM.

Same assay, conditions: inhibition of SARS-CoV-2 M^pro enzyme activity; values in nM; read-out: IC50

First: C[C@@H](NC(=O)COC(F)(F)F)C(=O)N[C@H](Cc1ccccc1)C(=O)C(=O)NCc1ccccn1 [Compound 80]
Second: C[C@@H](NC(=O)COc1cccc(F)c1)C(=O)N[C@H](Cc1ccccc1)C(=O)C(=O)NCc1ccccn1 [Compound 93]
The IC50 of the first is 2-fold higher: 58.6 ± 3.2 nM for the first, 28.8 ± 1 nM for the second.

First: C[C@@H](NC(=O)C(C)(C)Oc1ccc(Cl)cc1F)C(=O)N[C@H](Cc1ccccc1)C(=O)C(=O)NCc1ccccn1 [Compound 82]
Second: C[C@@H](NC(=O)COc1ccc(Cl)cc1F)C(=O)N[C@H](Cc1ccccc1)C(=O)C(=O)NCc1ccccn1 [Compound 86]
The IC50 of the first is 12-fold lower: 5.8 ± 0.1 nM for the first, 70.5 ± 2.5 nM for the second.

First: CC(C)C(Oc1ccc(Cl)cc1)C(=O)N[C@H](C)C(=O)N[C@H](Cc1ccccc1)C(=O)C(=O)NCc1ccccn1 (stereo partly shown) [Compound 83]
Second: COc1ccc(OC(C)C(=O)N[C@H](C)C(=O)N[C@H](Cc2ccccc2)C(=O)C(=O)NCc2ccccn2)cc1 (stereo partly shown) [Compound 87]
The IC50 of the first is 6.3-fold lower: 6.7 ± 0.1 nM for the first, 42.1 ± 1 nM for the second.

First: C[C@@H](NC(=O)COc1ccc(Cl)cc1)C(=O)N[C@H](Cc1ccccc1)C(=O)C(=O)NCc1ccccn1 [Compound 84]
Second: COc1ccc(OCC(=O)N[C@H](C)C(=O)N[C@H](Cc2ccccc2)C(=O)C(=O)NCc2ccccn2)cc1 [Compound 92]
The IC50 of the first is 1.5-fold higher: 40 ± 2.4 nM for the first, 26.6 ± 0.4 nM for the second.

Compared with `C[C@@H](NC(=O)C1CCc2cc(F)ccc2O1)C(=O)N[C@H](Cc1ccccc1)C(=O)C(=O)NCc1ccccn1` (stereo partly shown) [Compound 85], `C[C@@H](NC(=O)C1Cc2ccccc2O1)C(=O)N[C@H](Cc1ccccc1)C(=O)C(=O)NCc1ccccn1` (stereo partly shown) [Compound 102] is 2.1-fold lower in IC50: 56.7 ± 2.7 nM for the first, 26.6 ± 0.4 nM for the second.

Going from `CC(Oc1ccc(Cl)cc1Cl)C(=O)N[C@H](C)C(=O)N[C@H](Cc1ccccc1)C(=O)C(=O)NCc1ccccn1` (stereo partly shown) [Compound 88] to `C[C@@H](NC(=O)C(F)Oc1ccc(Cl)cc1Cl)C(=O)N[C@H](Cc1ccccc1)C(=O)C(=O)NCc1ccccn1` (stereo partly shown) [Compound 94], the IC50 falls from 24.4 nM to 13.5 ± 1.3 nM (1.8-fold).

Compared with `COc1ccccc1OCC(=O)N[C@H](C)C(=O)N[C@H](Cc1ccccc1)C(=O)C(=O)NCc1ccccn1` [Compound 89], `C[C@@H](NC(=O)COc1cccnc1)C(=O)N[C@H](Cc1ccccc1)C(=O)C(=O)NCc1ccccn1` [Compound 112] is 2.8-fold higher in IC50: 40.9 ± 1.2 nM for the first, 112.6 ± 0.5 nM for the second.

`C[C@@H](NC(=O)COc1ccc2ccccc2c1)C(=O)N[C@H](Cc1ccccc1)C(=O)C(=O)NCc1ccccn1` [Compound 91] and `C[C@@H](NC(=O)COc1cccc(C#N)c1)C(=O)N[C@H](Cc1ccccc1)C(=O)C(=O)NCc1ccccn1` [Compound 115] are within 1.5-fold of each other in IC50: 48.4 ± 2 nM for the first, 37.8 ± 3 nM for the second.

First: C[C@@H](NC(=O)C(C)(C)Sc1ccc(Cl)cc1Cl)C(=O)N[C@H](Cc1ccccc1)C(=O)C(=O)NCc1ccccn1 [Compound 95]
Second: C[C@@H](NC(=O)c1ccc(Cl)c(Cl)c1)C(=O)N[C@H](Cc1ccccc1)C(=O)C(=O)NCc1ccccn1 [Compound 99]
The IC50 of the first is 3.4-fold lower: 8.2 ± 1.1 nM for the first, 27.8 ± 1.1 nM for the second.

Compared with `CC(Oc1ccc(C(F)(F)F)cc1)C(=O)N[C@H](C)C(=O)N[C@H](Cc1ccccc1)C(=O)C(=O)NCc1ccccn1` (stereo partly shown) [Compound 96], `CC(Oc1ccc(C2CC2(Cl)Cl)cc1)C(=O)N[C@H](C)C(=O)N[C@H](Cc1ccccc1)C(=O)C(=O)NCc1ccccn1` (stereo partly shown) [Compound 97] is 1.8-fold higher in IC50: 20.2 ± 0.7 nM for the first, 37.2 ± 4.8 nM for the second. The first is the more potent here.

Compared with `C[C@@H](NC(=O)c1ccc(Cl)c(F)c1)C(=O)N[C@H](Cc1ccccc1)C(=O)C(=O)NCc1ccccn1` [Compound 98], `C[C@@H](NC(=O)c1ccc(Cl)cc1F)C(=O)N[C@H](Cc1ccccc1)C(=O)C(=O)NCc1ccccn1` [Compound 100] is 3.1-fold lower in IC50: 40.7 ± 1.9 nM for the first, 13 ± 1.4 nM for the second.

`C[C@@H](NC(=O)c1cc(F)cc(Cl)c1)C(=O)N[C@H](Cc1ccccc1)C(=O)C(=O)NCc1ccccn1` [Compound 101] and `C[C@@H](NC(=O)c1cc(F)cc(C#N)c1)C(=O)N[C@H](Cc1ccccc1)C(=O)C(=O)NCc1ccccn1` [Compound 105] are within 1.5-fold of each other in IC50: 21.6 ± 0.8 nM for the first, 25.3 ± 1.7 nM for the second.

Going from `C[C@@H](NC(=O)c1ccc(F)c(S(C)(=O)=O)c1)C(=O)N[C@H](Cc1ccccc1)C(=O)C(=O)NCc1ccccn1` [Compound 103] to `C[C@@H](NC(=O)c1ccnc(F)c1)C(=O)N[C@H](Cc1ccccc1)C(=O)C(=O)NCc1ccccn1` [Compound 108], the IC50 rises from 28.8 ± 1 nM to 66.4 ± 1.2 nM (2.3-fold). The first is the more potent here.

Compared with `C[C@@H](NC(=O)C1CC1c1ccccc1)C(=O)N[C@H](Cc1ccccc1)C(=O)C(=O)NCc1ccccn1` (stereo partly shown) [Compound 104], `C[C@@H](NC(=O)[C@H]1CC(=O)N([C@@H](C)c2ccccc2)C1)C(=O)N[C@H](Cc1ccccc1)C(=O)C(=O)NCc1ccccn1` [Compound 122] is 17-fold higher in IC50: 16.8 ± 1.1 nM for the first, 280.9 ± 2.3 nM for the second. The first is the more potent here.

`C[C@@H](NC(=O)c1cnccn1)C(=O)N[C@H](Cc1ccccc1)C(=O)C(=O)NCc1ccccn1` [Compound 106] and `C[C@@H](NC(=O)/C=C/c1ccc(F)cc1)C(=O)N[C@H](Cc1ccccc1)C(=O)C(=O)NCc1ccccn1` [Compound 109] are within 1.5-fold of each other in IC50: 161 ± 4.1 nM for the first, 168.9 ± 0.1 nM for the second.

`C[C@@H](NC(=O)C1(O)CCCCC1)C(=O)N[C@H](Cc1ccccc1)C(=O)C(=O)NCc1ccccn1` [Compound 107] and `C[C@@H](NC(=O)COC1CCCCC1)C(=O)N[C@H](Cc1ccccc1)C(=O)C(=O)NCc1ccccn1` [Compound 114] are within 1.5-fold of each other in IC50: 52 ± 0.2 nM for the first, 34.9 ± 1 nM for the second.

`C[C@@H](NC(=O)C1CCC(C(F)(F)F)CC1)C(=O)N[C@H](Cc1ccccc1)C(=O)C(=O)NCc1ccccn1` (stereo partly shown) [Compound 110] and `C[C@@H](NC(=O)[C@H]1CC[C@@H](F)CC1)C(=O)N[C@H](Cc1ccccc1)C(=O)C(=O)NCc1ccccn1` [Compound 127] are within 1.5-fold of each other in IC50: 31.3 ± 0.1 nM for the first, 40.8 ± 0.6 nM for the second.

First: C[C@@H](NC(=O)CC1CCC(F)(F)CC1)C(=O)N[C@H](Cc1ccccc1)C(=O)C(=O)NCc1ccccn1 [Compound 111]
Second: C[C@@H](NC(=O)C1CCC(F)(F)C1)C(=O)N[C@H](Cc1ccccc1)C(=O)C(=O)NCc1ccccn1 (stereo partly shown) [Compound 121]
The IC50 of the first is 2-fold lower: 25.3 ± 0.2 nM for the first, 50.7 ± 0.4 nM for the second.

Going from `C[C@@H](NC(=O)[C@@H](NC(=O)NC1(CS(=O)(=O)C(C)(C)C)CCCCC1)C(C)(C)C)C(=O)N[C@H](Cc1ccccc1)C(=O)C(=O)NCc1ccccn1` [Compound 113] to `CC[C@@H](C(=O)N[C@H](C)C(=O)N[C@H](Cc1ccccc1)C(=O)C(=O)NCc1ccccn1)N1CCCC1=O` [Compound 123], the IC50 rises from 69.1 ± 8.1 nM to 163 ± 2 nM (2.4-fold). The first is the more potent here.

Compared with `C[C@@H](NC(=O)C1CCS(=O)(=O)CC1)C(=O)N[C@H](Cc1ccccc1)C(=O)C(=O)NCc1ccccn1` [Compound 116], `C[C@@H](NC(=O)[C@H]1CC[C@H](C#N)CC1)C(=O)N[C@H](Cc1ccccc1)C(=O)C(=O)NCc1ccccn1` [Compound 117] is 2.8-fold lower in IC50: 130.1 ± 0.4 nM for the first, 46.1 ± 0.3 nM for the second. The second is the more potent here.

Compared with `C[C@@H](NC(=O)C1C2CCCC2CN1C(=O)OC(C)(C)C)C(=O)N[C@H](Cc1ccccc1)C(=O)C(=O)NCc1ccccn1` (stereo partly shown) [Compound 118], `C[C@@H](NC(=O)CC1CCC(F)(F)CC1)C(=O)N[C@H](Cc1ccccc1)C(=O)C(=O)NCc1ccccn1` [Compound 125] is 2-fold lower in IC50: 40.2 ± 3.4 nM for the first, 19.7 ± 1.2 nM for the second. The second is the more potent here.

First: C[C@H](C(=O)N[C@H](Cc1ccccc1)C(=O)C(=O)NCc1ccccn1)N(C)C(=O)C1CCC(F)(F)CC1 [Compound 119]
Second: C[C@@H](NC(=O)C1CCC(F)(F)CC1)C(=O)N[C@H](Cc1ccccc1)C(=O)C(=O)NCc1ccc(Cl)cn1 [Compound 120]
The IC50 of the first is 6.8-fold lower: 16.5 ± 1.5 nM for the first, 113.3 ± 1 nM for the second. The first is the more potent here.

`C[C@H](c1ccccc1)N1C[C@H](C(=O)N[C@H](C)C(=O)N[C@H](Cc2ccccc2)C(=O)C(=O)NCc2ccccn2)CC1=O` [Compound 124] gave an IC50 of 45.1 ± 0.6 nM.
